Experimental data taken from publication PMC11822212, “High-throughput screening identifies Aurora kinase B as a critical therapeutic target for Merkel cell carcinoma” (Nature Communications, 2025).
“And” between values parts separate entries of the source, which are not always exact repeats. Equal entries are not always repeated. Where two headings read alike, the source gives them in different places.

What was measured:
Test in all cases: qHTS cell viability (CellTiter-Glo, 72 h; primary and follow-up small molecule screen)
Type in all cases: cell-based, human
[1] = test system: MCC13 cells (VN-MCC)
[2] = test system: MCC26 cells (VN-MCC)
[3] = test system: UISO cells (VN-MCC)
[4] = test system: WAGA cells (VP-MCC)
[5] = test system: MKL-1 cells (VP-MCC)
[6] = test system: MKL-2 cells (VP-MCC)
[7] = follow-up screen, MCC13, replicate 1
[8] = follow-up screen, MCC13, replicate 2
[9] = follow-up screen, MCC13, replicate 3
[10] = follow-up screen, MCC26, replicate 1
[11] = follow-up screen, MCC26, replicate 2
[12] = follow-up screen, MCC26, replicate 3
[13] = follow-up screen, UISO, replicate 1
[14] = follow-up screen, UISO, replicate 2
[15] = follow-up screen, UISO, replicate 3
[16] = follow-up screen, WAGA, replicate 1
[17] = follow-up screen, WAGA, replicate 2
[18] = follow-up screen, WAGA, replicate 3
[19] = follow-up screen, MKL-1, replicate 1
[20] = follow-up screen, MKL-1, replicate 2
[21] = follow-up screen, MKL-1, replicate 3
[22] = follow-up screen, MKL-2, replicate 1
[23] = follow-up screen, MKL-2, replicate 2
[24] = follow-up screen, MKL-2, replicate 3

Compound	Area under the dose-response curve (AUC) MCC13 Replicate 1 [1]	Area under the dose-response curve (AUC) MCC13 Replicate 2 [1]	Area under the dose-response curve (AUC) MCC13 Replicate 3 [1]	Area under the dose-response curve (AUC) MCC26 Replicate 1 [2]	Area under the dose-response curve (AUC) MCC26 Replicate 2 [2]	Area under the dose-response curve (AUC) MCC26 Replicate 3 [2]	Area under the dose-response curve (AUC) UISO Replicate 1 [3]	Area under the dose-response curve (AUC) UISO Replicate 2 [3]	Area under the dose-response curve (AUC) UISO Replicate 3 [3]	Area under the dose-response curve (AUC) WAGA Replicate 1 [4]	Area under the dose-response curve (AUC) WAGA Replicate 2 [4]	Area under the dose-response curve (AUC) WAGA Replicate 3 [4]	Area under the dose-response curve (AUC) MKL-1 Replicate 1 [5]	Area under the dose-response curve (AUC) MKL-1 Replicate 2 [5]	Area under the dose-response curve (AUC) MKL-1 Replicate 3 [5]	Area under the dose-response curve (AUC) MKL-2 Replicate 1 [6]	Area under the dose-response curve (AUC) MKL-2 Replicate 2 [6]	Area under the dose-response curve (AUC) MKL-2 Replicate 3 [6]	further results
O=c1cc(-c2ccc(O)c(O)c2)oc2cc(O)cc(O)c12 [Luteolin]																			Area under the dose-response curve (AUC) MCC13 Replicate 1 [1, 7]: 522.6; Area under the dose-response curve (AUC) MCC13 Replicate 2 [1, 8]: 523.6; Area under the dose-response curve (AUC) MCC13 Replicate 3 [1, 9]: 493.6; Area under the dose-response curve (AUC) MCC26 Replicate 1 [2, 10]: 469.7; Area under the dose-response curve (AUC) MCC26 Replicate 2 [2, 11]: 436.1; Area under the dose-response curve (AUC) MCC26 Replicate 3 [2, 12]: 492.5; Area under the dose-response curve (AUC) UISO Replicate 1 [3, 13]: 505.5; Area under the dose-response curve (AUC) UISO Replicate 2 [3, 14]: 498.3; Area under the dose-response curve (AUC) UISO Replicate 3 [3, 15]: 457.3; Area under the dose-response curve (AUC) WAGA Replicate 1 [4, 16]: 542.7; Area under the dose-response curve (AUC) WAGA Replicate 2 [4, 17]: 525.5; Area under the dose-response curve (AUC) WAGA Replicate 3 [4, 18]: 485.9; Area under the dose-response curve (AUC) MKL-1 Replicate 1 [5, 19]: 484.8; Area under the dose-response curve (AUC) MKL-1 Replicate 2 [5, 20]: 451.1; Area under the dose-response curve (AUC) MKL-1 Replicate 3 [5, 21]: 471.1; Area under the dose-response curve (AUC) MKL-2 Replicate 1 [6, 22]: 469.9; Area under the dose-response curve (AUC) MKL-2 Replicate 2 [6, 23]: 500.3; Area under the dose-response curve (AUC) MKL-2 Replicate 3 [6, 24]: 460.5
AZD-4547																			Area under the dose-response curve (AUC) [1]: 385.3 and 349.5 and 390.1; Area under the dose-response curve (AUC) [2]: 311.4 and 288.0 and 307.4; Area under the dose-response curve (AUC) [3]: 337.7 and 347.0 and 331.2; Area under the dose-response curve (AUC) [4]: 425.9 and 443.6 and 367.2; Area under the dose-response curve (AUC) [5]: 362.7 and 390.5 and 360.0; Area under the dose-response curve (AUC) [6]: 380.8 and 390.1 and 354.8
COc1cc(O)c2c(c1)oc(=O)c1c3cc(O)c(O)cc3oc21 [WEDELOLACTONE]	452.7	445.8	440.3	436.4	432.2	441.9	275.6	271.0	228.5	442.4	419.0	421.6	490.5	454.4	448.6	426.5	409.5	433.4	
CN[C@@H]1[C@H](O)[C@H](NC)[C@H]2O[C@@]3(O)C(=O)C[C@@H](C)O[C@H]3O[C@@H]2[C@H]1O.Cl.Cl.O.O.O.O.O [Spectinomycin hydrochloride]																			Area under the dose-response curve (AUC) MCC13 Replicate 1 [1, 7]: 504.6; Area under the dose-response curve (AUC) MCC13 Replicate 2 [1, 8]: 484.6; Area under the dose-response curve (AUC) MCC13 Replicate 3 [1, 9]: 486.4; Area under the dose-response curve (AUC) MCC26 Replicate 1 [2, 10]: 469.4; Area under the dose-response curve (AUC) MCC26 Replicate 2 [2, 11]: 428.8; Area under the dose-response curve (AUC) MCC26 Replicate 3 [2, 12]: 486.9; Area under the dose-response curve (AUC) UISO Replicate 1 [3, 13]: 480.2; Area under the dose-response curve (AUC) UISO Replicate 2 [3, 14]: 491.5; Area under the dose-response curve (AUC) UISO Replicate 3 [3, 15]: 485.2; Area under the dose-response curve (AUC) WAGA Replicate 1 [4, 16]: 531.5; Area under the dose-response curve (AUC) WAGA Replicate 2 [4, 17]: 530.5; Area under the dose-response curve (AUC) WAGA Replicate 3 [4, 18]: 510.1; Area under the dose-response curve (AUC) MKL-1 Replicate 1 [5, 19]: 495.1; Area under the dose-response curve (AUC) MKL-1 Replicate 2 [5, 20]: 464.4; Area under the dose-response curve (AUC) MKL-1 Replicate 3 [5, 21]: 515.8; Area under the dose-response curve (AUC) MKL-2 Replicate 1 [6, 22]: 495.5; Area under the dose-response curve (AUC) MKL-2 Replicate 2 [6, 23]: 540.4; Area under the dose-response curve (AUC) MKL-2 Replicate 3 [6, 24]: 501.9
Phenylmercuric acetate	405.8	369.3	386.0	356.5	359.6	374.3	343.0	369.6	334.3	330.3	317.4	331.4	287.3	286.9	280.4	295.2	271.6	292.7	
CCOC(=O)c1cnc2ccc(-c3cncc(NS(=O)(=O)c4ccccc4)c3)cn12 [HS-173]																			Area under the dose-response curve (AUC) [1]: 410.4 and 416.6 and 423.4; Area under the dose-response curve (AUC) [2]: 371.1 and 368.1 and 383.3; Area under the dose-response curve (AUC) [3]: 373.6 and 378.4 and 376.1; Area under the dose-response curve (AUC) [4]: 390.4 and 391.0 and 384.0; Area under the dose-response curve (AUC) [5]: 400.2 and 402.4 and 398.2; Area under the dose-response curve (AUC) [6]: 425.2 and 393.3 and 372.1
CCC(=O)NC[C@H](Cc1ccc(OCCc2nc(-c3ccccc3)oc2C)cc1)N/C(C)=C\C(=O)c1ccc(C(F)(F)F)cc1 [GW-6471]	508.4	489.8	459.0	466.5	438.7	475.7	430.2	426.3	403.1	517.9	512.0	484.1	475.3	443.7	500.6	432.8	489.1	475.3	
CC[n+]1c(-c2ccccc2)c2cc(N)ccc2c2ccc(N)cc21 [Ethidium bromide]	459.3	449.7	444.5	428.7	414.7	412.7	333.5	324.2	301.4	318.2	323.3	317.1	280.1	244.2	288.2	300.3	311.5	284.3	
Oxamflatin																			Area under the dose-response curve (AUC) [1]: 440.6 and 393.8 and 429.1; Area under the dose-response curve (AUC) [2]: 406.5 and 378.8 and 411.0; Area under the dose-response curve (AUC) [3]: 391.0 and 406.3 and 400.1; Area under the dose-response curve (AUC) [4]: 338.5 and 313.0 and 330.7; Area under the dose-response curve (AUC) [5]: 365.5 and 347.7 and 381.7; Area under the dose-response curve (AUC) [6]: 378.9 and 303.8 and 268.6
Nc1nc(Cl)nc2c1ncn2[C@@H]1O[C@H](CO)[C@@H](O)[C@@H]1F [Clofarabine]																			Area under the dose-response curve (AUC) MCC13 Replicate 1 [1, 7]: 326.5; Area under the dose-response curve (AUC) MCC13 Replicate 2 [1, 8]: 337.3; Area under the dose-response curve (AUC) MCC13 Replicate 3 [1, 9]: 347.1; Area under the dose-response curve (AUC) MCC26 Replicate 1 [2, 10]: 347.1; Area under the dose-response curve (AUC) MCC26 Replicate 2 [2, 11]: 310.6; Area under the dose-response curve (AUC) MCC26 Replicate 3 [2, 12]: 353.8; Area under the dose-response curve (AUC) UISO Replicate 1 [3, 13]: 305.8; Area under the dose-response curve (AUC) UISO Replicate 2 [3, 14]: 296.3; Area under the dose-response curve (AUC) UISO Replicate 3 [3, 15]: 317.2; Area under the dose-response curve (AUC) WAGA Replicate 1 [4, 16]: 261.2; Area under the dose-response curve (AUC) WAGA Replicate 2 [4, 17]: 248.1; Area under the dose-response curve (AUC) WAGA Replicate 3 [4, 18]: 263.5; Area under the dose-response curve (AUC) MKL-1 Replicate 1 [5, 19]: 270.1; Area under the dose-response curve (AUC) MKL-1 Replicate 2 [5, 20]: 265.5; Area under the dose-response curve (AUC) MKL-1 Replicate 3 [5, 21]: 283.6; Area under the dose-response curve (AUC) MKL-2 Replicate 1 [6, 22]: 314.2; Area under the dose-response curve (AUC) MKL-2 Replicate 2 [6, 23]: 343.5; Area under the dose-response curve (AUC) MKL-2 Replicate 3 [6, 24]: 397.2
CN(C)c1ccc(C(=C2C=CC(=[N+](C)C)C=C2)c2ccc(N(C)C)cc2)cc1.[Cl-] [Methylrosaniline chloride]	337.3	353.3	322.2	379.4	341.7	374.7	320.8	340.7	296.1	370.0	348.5	356.4	316.1	287.7	301.6	279.9	290.8	309.2	
